Assay [1] concerns SS tumour cell lines (HS-SY-II, ASKA, YAMOTO, CME1, SYO1). The assay is described as follows: Five-day cell viability (CellTiter-Glo) in synovial sarcoma tumour cell lines. The format is cell-based, human. An excerpt: FIG. 8. ATR genetic dependency synovial sarcoma tumour cells—part 1. A. ATR siRNA Z scores from the siRNA screens described in FIG. 7, classified according to the cancer histology of tumour cell lines. B. Dose-response survival curves illustrating sensitivity of SS tumour cell lines to the ATR small molecule inhibitor (ATRi) VX970, compared to ATRi resistant HCT116 cells. Cells were exposed to drugs for five days and cell viability estimated using CellTiter-Glo. For each SS tumour cell line, dose response ANOVA p<0.0001 vs. HCT116. C. Dose-response survival curves illustrating sensitivity of SS tumour cell lines to VX970, compared to ATRi resistant ARID1A wild type HCT116 cells (HCT116 ARID1A^+/+) and ARID1A defective HCT116 cells (HCT116 ARID1A^−/−). Cells were exposed to drugs for five days and cell viability estimated using CellTiter-Glo. For each SS tumour cell line and HCT116 ARID1A^−/−, dose response ANOVA p<0.0001 vs. HCT116 ARID1A^+/+. D. VX970 area under the curve (AUC) values in tumour cell lines. ARID1A defective cells indicated as “ARID1A^−/−”, Ewings sarcoma tumour cell lines shown as “EWS”. E. Anti-tumour response in mice bearing established synovial sarcoma PDX, SA13412, to treatment with VX970. Median tumour volumes after the initiation of VX970 treatment are shown. Error bars represent standard error of the mean (SEM). F. Kaplan-Meier survival plot of data from (E). log rank Mantel p=0.026. G. Western blot illustrating expression of synovial sarcoma fusion proteins in HCT116 cells. A SS18-SSX1 variant with the final eight residues of SSX1 deleted (Δ71-78) is shown as d71-78. H. Bar chart illustrating induction of AXIN2 mRNA after expression of synovial sarcoma fusion proteins in HCT116 cells. I-K. Dose-response survival curves illustrating that expression of synovial sarcoma fusion proteins in HCT116 cells causes ATRi sensitivity.
FIG. 9. ATR genetic dependency synovial sarcoma tumour cells—part 2. […] Cells were transfected with ATR siRNAs and cell viability estimated five days later by the use of Cell Titre Glo. Bar chart showing surviving fractions are shown left and middle. Western blot illustrating ATR protein silencing is shown right. Z scores from the siRNA screens described in FIG. 7, classified according to the cancer histology of tumour cell lines. B. Dose-response survival curves illustrating sensitivity of SS tumour cell lines to the ATR small molecule inhibitor (ATRi) VX970, compared to ATRi resistant HCT116 cells and non-tumour cells (HFF1, MCF10A). […]
Having confirmed the sensitivity of SS tumour cell lines to siRNA in validation experiments (FIG. 9A), we assessed the sensitivity of the five SS tumour cell lines to the clinical ATR inhibitor (ATRi), VX970 (Vertex Pharmaceuticals). […]
(ATP-based viability assays read luminescence as a measure of living cells.)

A further assay deals with HCC1143 and HeLa cells. The assay is described as follows: Surviving fraction after five days VX-970 with SMARCA4 or ARID1A siRNA. The format is cell-based, human. The settings on record: five days exposure. As for the experimental part: FIG. 6. BAF complex deficiency causes sensitivity to ATR inhibition. A. Schematic of BAF complex composition in human cells. B. VX-970 dose response curves from HCT116 cells transfected with siRNA targeting ARID1B or SMARCA4. 48 hours after transfection cells were exposed to VX-970 for 5 days. Error bars represent SD from triplicate experiments. p<0.0001, ANOVA for siARID1B and siSMARCA4 vs. siCON. C. Western blots illustrating ARID1B and SMARCA4 silencing in experiment (B). D. VX-970 dose response curves from four OCCC cell lines, 3 SMARCA4 wildtype (blue; RMG1, KK and ES2) and 1 SMARCA4 mutant (red; TOV112D). E. Bar chart illustrating surviving fraction after five days VX-970 exposure in HCC1143 and He1a cells transfected with siRNA targeting either SMARCA4 or ARID1A *p<0.05 by Student's t-test compared to siCon. F. Western blot illustrating level of chromatin bound TOP2A in HCT116 cells transfected siRNA targeting ARID1A, ARID1B or SMARCA4. Cells were analysed 48 hours after transfection. G. A model for the proposed mechanism driving the sensitivity of ARID1A-deficient cells to ATRi. Loss of function genomic alterations to ARID1A (or ARID1B/SMARCA4) lead to dysfunction of the BAF complex. This in turn causes decreased binding of TOP2A to chromatin, reducing the efficiency of chromosomal decatenation. […]

`CNCc1ccc(-c2cc(-c3nc(-c4ccc(S(=O)(=O)C(C)C)cc4)cnc3N)on2)cc1` [VX-970, 5-[4-(Isopropylsulfonyl)phenyl]-3-(3-{4-[(methylamino)methyl]phenyl}-1,2-oxazol-5-yl)-2-pyrazinamine]: in assay [1] (AUC and SF50 comparison), the “sensitivity of SS tumour cell lines vs Ewing's sarcoma and ARID1A defective tumour cells” value is recorded as “VX970 sensitivity comparable”. In addition, the IC50 in assay [1] (Homo sapiens, 120 h, each of five SS tumour cell lines, five days exposure, read-out: SF50 (concentration required to cause 50% reduction in cell survival)) is around 0.1 µM. The “sensitivity of SS tumour cell lines vs ARID1A defective HCT116 cells” value in assay [1] (five days) is reported as “as sensitive to VX970 as HCT116 cells”. For the same compound, the “sensitivity of SS tumour cell lines vs ATRi resistant HCT116 cells” value in assay [1] (five days, ANOVA p<0.0001) was “profoundly sensitive to VX970”. Further, the “VX-970 sensitivity caused by SMARCA4 silencing vs ARID1A siRNA” value in the assay with HCC1143 and HeLa cells is listed as “comparable to that caused by ARID1A siRNA”.

The values above are taken from US12233060B2, “Inhibitors of Ataxia-Telangiectasia Mutated and Rad3-related protein kinase (ATR) for use in methods of treating cancer” (THE INSTITUTE OF CANCER RESEARCH: ROYAL CANCER HOSPITAL, priority 2016, dated 2025).
